Reference: patent publication US5320825A, “Serotonin reuptake inhibitors for S.P.E.C.T. imaging” (Trustees of the University of Pennsylvania, priority 1991, dated 1994)
Structures can show the parent of a compound that is named as a salt. Where two headings read alike, the source gives them in different places.

Legend:
[1] = target: serotonin reuptake system (5-HT); conditions: read-out: Inhibition of monoamine uptake, 5-HT (Ki), cited from earlier work
[2] = target: dopamine (DA) reuptake system; conditions: read-out: Inhibition of monoamine uptake, DA (Ki), cited from earlier work
[3] = target: norepinephrine (NE) reuptake system; conditions: rat synaptosomes; read-out: Inhibition of monoamine uptake, NE (Ki); cited from earlier work
[4] = target: norepinephrine reuptake sites (Rattus norvegicus, UniProt Q63380); assay: in vitro competitive binding assay, norepinephrine uptake sites, [3H]-Nisoxetine; conditions: rat brain tissue preparation
Chain of norepinephrine reuptake sites (Q63380 1-617): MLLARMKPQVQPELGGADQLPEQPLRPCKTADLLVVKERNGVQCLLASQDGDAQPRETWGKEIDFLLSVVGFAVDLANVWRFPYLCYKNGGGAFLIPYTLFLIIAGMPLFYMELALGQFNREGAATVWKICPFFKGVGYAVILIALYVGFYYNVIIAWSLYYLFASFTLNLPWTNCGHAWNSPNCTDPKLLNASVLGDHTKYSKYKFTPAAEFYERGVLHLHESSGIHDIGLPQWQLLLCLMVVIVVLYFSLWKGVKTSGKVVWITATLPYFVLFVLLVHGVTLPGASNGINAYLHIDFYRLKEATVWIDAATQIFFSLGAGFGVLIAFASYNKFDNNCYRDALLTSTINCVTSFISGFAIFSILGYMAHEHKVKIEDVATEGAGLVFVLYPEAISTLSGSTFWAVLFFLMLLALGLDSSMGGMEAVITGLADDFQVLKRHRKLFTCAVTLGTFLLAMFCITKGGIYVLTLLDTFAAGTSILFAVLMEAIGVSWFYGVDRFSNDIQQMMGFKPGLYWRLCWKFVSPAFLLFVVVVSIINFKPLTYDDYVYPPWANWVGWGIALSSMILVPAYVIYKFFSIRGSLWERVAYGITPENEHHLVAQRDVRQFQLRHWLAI
From the text: (§1) The affinity of the compounds prepared in Examples 1-4 to serotonin and norepinephrine uptake sites was studied using in vitro competitive binding assays.

serotonin reuptake sites = target: T1, serotonin reuptake sites (Rattus norvegicus, UniProt P31652); assay: in vitro competitive binding assay, serotonin uptake sites, [3H]-Paroxetine
T1 construct: in rat brain tissue preparation; from tissue
T1 sequence (P31652 whole entry): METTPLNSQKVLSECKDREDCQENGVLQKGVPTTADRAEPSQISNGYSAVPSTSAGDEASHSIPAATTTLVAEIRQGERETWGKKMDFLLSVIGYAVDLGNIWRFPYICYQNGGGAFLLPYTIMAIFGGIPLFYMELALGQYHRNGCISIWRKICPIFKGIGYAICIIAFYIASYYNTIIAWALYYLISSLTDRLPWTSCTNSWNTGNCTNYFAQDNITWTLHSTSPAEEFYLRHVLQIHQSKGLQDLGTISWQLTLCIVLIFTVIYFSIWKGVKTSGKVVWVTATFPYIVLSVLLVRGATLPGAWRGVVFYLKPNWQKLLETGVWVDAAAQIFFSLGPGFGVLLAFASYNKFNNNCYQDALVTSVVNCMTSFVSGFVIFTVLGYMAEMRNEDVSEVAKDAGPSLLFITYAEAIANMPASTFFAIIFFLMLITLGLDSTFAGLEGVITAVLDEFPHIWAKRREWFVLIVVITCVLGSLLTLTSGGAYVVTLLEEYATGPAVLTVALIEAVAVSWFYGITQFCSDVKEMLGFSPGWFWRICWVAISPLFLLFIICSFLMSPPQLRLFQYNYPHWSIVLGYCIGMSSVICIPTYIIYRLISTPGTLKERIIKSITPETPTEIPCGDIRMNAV
From the text: as §1

[5] = Biodistribution of compound 7 in rats after an iv injection; assay type: in vivo; conditions: rat
Protocol: The biodistribution of [R]-(-)-N-methyl-3-phenyl-3-(4-^123 I-2-methylphenoxy)propylamine hydrochloride (compound 7) in rats, after intravenous injection, was analyzed. Results are presented in Table 4 and indicate that moderate brain uptake (0.64-0.84% dose/organ) is found consistently throughout the two hour period.

[6] = test system: prefrontal cortex membrane of rat brain; conditions: in vitro
rat brain sections = conditions: ex vivo autoradiography, 2 hr. post i.v. injection, paroxetine 10 mg/Kg, i.p.
[7] = for Biodistribution, Blood / Biodistribution, Brain / Biodistribution, Heart / Biodistribution, Kidney / Biodistribution, Liver / Biodistribution, Lung / Biodistribution, Muscle / Biodistribution, Skin / Biodistribution, Spleen / Biodistribution, Thyroid: rat, iv
[8] = n = 3, 2nd time column (time not given)
[9] = n = 3, 4th time column (time not given)

For `CN[C@@H]1C[C@@H](c2ccc(Cl)c(Cl)c2)c2ccccc21` (relative stereo) [Indatraline trans, Indatraline], the Ki [1] is listed as 0.58 nM, the Ki [2] is listed as 2000 nM and the Ki [3] is listed as 90 nM.

For `CNCCC(Oc1ccc(C(F)(F)F)cc1)c1ccccc1` (stereo not shown) [Fluoxetine], the Ki [2] is listed as 1590 nM.

`CNCC[C@@H](Oc1cccc(I)c1)c1ccccc1` [Compound 4, [R]-(-)-N-Methyl-3-phenyl-3-(3-iodophenoxy)propylamine] showed an IC50 [4] of 500 nM and a Ki (serotonin reuptake sites) of 0.8 nM.

For `CN[C@@H]1CC[C@@H](c2ccccc2)c2ccccc21` [Tametraline], the Ki ([1]; rat synaptosomes) is given as 50 nM, the Ki ([2]; rat synaptosomes) is given as 60 nM and the Ki [3] is given as 20 nM.

For `Fc1ccc([C@@H]2CCNC[C@H]2COc2ccc3c(c2)OCO3)cc1` [Paroxetine], the Ki [3] is given as 350 nM.

With `CNCC[C@@H](Oc1ccc(I)cc1C)c1ccccc1.Cl` [Compound 7, [R]-(-)-N-Methyl-3-phenyl-3-(4-iodo-2-methylphenoxy)propylamine hydrochloride] the IC50 [4] was 20 nM, the “Biodistribution, Blood” value [5, 8] was 2.19 ± 0.32 % dose/organ and the “Biodistribution, Brain” value [5, 8] was 0.80 ± 0.04 % dose/organ. For the same compound, the “Biodistribution, Heart” value [5, 8] was 0.55 ± 0.04 % dose/organ, the “Biodistribution, Kidney” value [5, 8] was 2.70 ± 0.48 % dose/organ and the “Biodistribution, Lung” value [5, 8] was 9.36 ± 1.52 % dose/organ. The “Biodistribution, Skin” value [5, 8] was 6.75 ± 1.35 % dose/organ, the “Biodistribution, Spleen” value [5, 8] was 1.09 ± 0.32 % dose/organ and the “Biodistribution, Thyroid” value [5, 8] was 0.07 ± 0.02 % dose/organ. For the same compound, the “Biodistribution, Blood” value [5, 9] was 2.39 ± 0.33 % dose/organ, the “Biodistribution, Brain” value [5, 9] was 0.68 ± 0.01 % dose/organ and the “Biodistribution, Kidney” value [5, 9] was 1.12 ± 0.44 % dose/organ. The “Biodistribution, Lung” value [5, 9] was 6.81 ± 0.76 % dose/organ, the “Biodistribution, Skin” value [5, 9] was 6.92 ± 0.83 % dose/organ and the “Biodistribution, Spleen” value [5, 9] was 0.79 ± 0.05 % dose/organ. The brain uptake ([5]; throughout the two hour period) was 0.64-0.84 % dose/organ and the Ki (serotonin reuptake sites) was 5 nM.

In the case of `CNCCC(Oc1ccc(C(F)(F)F)cc1)c1ccc([125I])cc1` (racemic) [Compound 15, iodo-fluoxetine], the non-specific binding [6] is reported as “strong non-specific binding”, the “regional distribution pattern in rat brain sections, effect of paroxetine pretreatment” value (rat brain sections) is reported as “not altered by pretreatment of paroxetine” and the initial brain uptake ([7]; 2 min.) is reported as 0.68 % dose/organ. For the same compound, the brain retention ([7]; 8 hr.) was 0.63 % dose/organ, the “Biodistribution, Blood” value ([7]; 2 min.) was 3.03 ± 0.40 % dose/organ and the “Biodistribution, Brain” value ([7]; 2 min.) was 0.61 ± 0.12 % dose/organ. The “Biodistribution, Heart” value ([7]; 2 min.) was 2.27 ± 0.31 % dose/organ, the “Biodistribution, Kidney” value ([7]; 2 min.) was 4.16 ± 0.36 % dose/organ and the “Biodistribution, Liver” value ([7]; 2 min.) was 15.92 ± 2.41 % dose/organ. For the same compound, the “Biodistribution, Lung” value ([7]; 2 min.) was 11.09 ± 2.32 % dose/organ, the “Biodistribution, Muscle” value ([7]; 2 min.) was 12.71 ± 5.3 % dose/organ and the “Biodistribution, Skin” value ([7]; 2 min.) was 4.90 ± 0.50 % dose/organ. For the same compound, the “Biodistribution, Spleen” value ([7]; 2 min.) was 0.61 ± 0.06 % dose/organ, the “Biodistribution, Thyroid” value ([7]; 2 min.) was 0.10 ± 0.04 % dose/organ and the “Biodistribution, Blood” value ([7]; 15 min.) was 1.71 ± 0.31 % dose/organ. The “Biodistribution, Brain” value ([7]; 15 min.) was 0.68 ± 0.02 % dose/organ, the “Biodistribution, Heart” value ([7]; 15 min.) was 1.14 ± 0.04 % dose/organ and the “Biodistribution, Kidney” value ([7]; 15 min.) was 4.05 ± 0.44 % dose/organ. For the same compound, the “Biodistribution, Liver” value ([7]; 15 min.) was 16.27 ± 2.35 % dose/organ, the “Biodistribution, Lung” value ([7]; 15 min.) was 6.77 ± 0.25 % dose/organ and the “Biodistribution, Muscle” value ([7]; 15 min.) was 16.01 ± 4.55 % dose/organ. The “Biodistribution, Skin” value ([7]; 15 min.) was 5.84 ± 0.95 % dose/organ, the “Biodistribution, Spleen” value ([7]; 15 min.) was 0.93 ± 0.15 % dose/organ and the “Biodistribution, Thyroid” value ([7]; 15 min.) was 0.07 ± 0.03 % dose/organ. The “Biodistribution, Blood” value ([7]; 60 min.) was 3.16 ± 0.36 % dose/organ, the “Biodistribution, Brain” value ([7]; 60 min.) was 0.78 ± 0.01 % dose/organ and the “Biodistribution, Heart” value ([7]; 60 min.) was 0.43 ± 0.05 % dose/organ. For the same compound, the “Biodistribution, Kidney” value ([7]; 60 min.) was 2.32 ± 0.38 % dose/organ, the “Biodistribution, Liver” value ([7]; 60 min.) was 17.64 ± 1.88 % dose/organ and the “Biodistribution, Lung” value ([7]; 60 min.) was 7.32 ± 0.45 % dose/organ. The “Biodistribution, Muscle” value ([7]; 60 min.) was 22.63 ± 4.48 % dose/organ, the “Biodistribution, Skin” value ([7]; 60 min.) was 10.76 ± 2.85 % dose/organ and the “Biodistribution, Spleen” value ([7]; 60 min.) was 1.20 ± 0.13 % dose/organ. The “Biodistribution, Thyroid” value ([7]; 60 min.) was 0.08 ± 0.01 % dose/organ, the “Biodistribution, Blood” value ([7]; 120 min.) was 3.62 ± 0.24 % dose/organ and the “Biodistribution, Brain” value ([7]; 120 min.) was 0.84 ± 0.073 % dose/organ. For the same compound, the “Biodistribution, Heart” value ([7]; 120 min.) was 0.48 ± 0.02 % dose/organ, the “Biodistribution, Kidney” value ([7]; 120 min.) was 1.82 ± 0.21 % dose/organ and the “Biodistribution, Liver” value ([7]; 120 min.) was 11.55 ± 0.78 % dose/organ. The “Biodistribution, Lung” value ([7]; 120 min.) was 7.21 ± 0.36 % dose/organ, the “Biodistribution, Muscle” value ([7]; 120 min.) was 24.22 ± 0.68 % dose/organ and the “Biodistribution, Skin” value ([7]; 120 min.) was 10.08 ± 0.78 % dose/organ. For the same compound, the “Biodistribution, Spleen” value ([7]; 120 min.) was 1.09 ± 0.07 % dose/organ, the “Biodistribution, Thyroid” value ([7]; 120 min.) was 0.10 ± 0.02 % dose/organ and the “Biodistribution, Blood” value ([7]; 240 min.) was 4.99 ± 0.70 % dose/organ. For the same compound, the “Biodistribution, Brain” value ([7]; 240 min.) was 0.70 ± 0.031 % dose/organ, the “Biodistribution, Heart” value ([7]; 240 min.) was 0.28 ± 0.01 % dose/organ and the “Biodistribution, Kidney” value ([7]; 240 min.) was 1.18 ± 0.17 % dose/organ. For the same compound, the “Biodistribution, Liver” value ([7]; 240 min.) was 11.52 ± 0.91 % dose/organ, the “Biodistribution, Lung” value ([7]; 240 min.) was 7.57 ± 2.36 % dose/organ and the “Biodistribution, Muscle” value ([7]; 240 min.) was 20.38 ± 2.67 % dose/organ. For the same compound, the “Biodistribution, Skin” value ([7]; 240 min.) was 8.27 ± 0.75 % dose/organ, the “Biodistribution, Spleen” value ([7]; 240 min.) was 0.71 ± 0.11 % dose/organ and the “Biodistribution, Thyroid” value ([7]; 240 min.) was 0.14 ± 0.001 % dose/organ. The “Biodistribution, Blood” value ([7]; 480 min.) was 7.61 ± 1.11 % dose/organ, the “Biodistribution, Brain” value ([7]; 480 min.) was 0.61 ± 0.07 % dose/organ and the “Biodistribution, Heart” value ([7]; 480 min.) was 0.32 ± 0.03 % dose/organ. For the same compound, the “Biodistribution, Kidney” value ([7]; 480 min.) was 1.11 ± 0.06 % dose/organ, the “Biodistribution, Liver” value ([7]; 480 min.) was 16.47 ± 2.03 % dose/organ and the “Biodistribution, Lung” value ([7]; 480 min.) was 5.00 ± 0.46 % dose/organ. For the same compound, the “Biodistribution, Muscle” value ([7]; 480 min.) was 19.90 ± 2.61 % dose/organ, the “Biodistribution, Skin” value ([7]; 480 min.) was 10.78 ± 0.07 % dose/organ and the “Biodistribution, Spleen” value ([7]; 480 min.) was 0.52 ± 0.048 % dose/organ. The “Biodistribution, Thyroid” value ([7]; 480 min.) was 0.22 ± 0.06 % dose/organ, the initial heart uptake ([7]; rats, 2 min. post injection) was 2.3% and the heart uptake ([7]; rats, 8 hr. post injection) was 0.3%.

Compound `CNCC[C@H](Oc1cccc(I)c1)c1ccccc1` [Compound 11, [S]-(+)-N-Methyl-3-phenyl-3-(3-iodophenoxy)propylamine] has an IC50 [4] of 7000 nM and a Ki (serotonin reuptake sites; rat brain tissue preparation, [3H]-Paroxetine, read-out: Serotonin Uptake [3H]-Paroxetine Ki) of 8.2 nM.

In the case of `CNCCC(Oc1ccccc1OC)c1ccccc1` (stereo not shown) [Nisoxetine], the Ki ([1]; rat synaptosomes) is listed as 3.8 nM, the Ki ([2]; rat synaptosomes) is listed as 365 nM and the Ki [3] is listed as 670 nM.

For `CN[C@@H]1C[C@H](c2ccc(Cl)c(Cl)c2)c2ccccc21` (relative stereo) [Indatraline cis, Indatraline], the Ki [1] is listed as 0.03 nM, the Ki [2] is listed as 860 nM and the Ki [3] is listed as 34 nM.

With `CNCC[C@H](Oc1ccc(I)cc1C)c1ccccc1` [Compound 14, {S}-(+)-N-Methyl-3-phenyl-3-(4-iodo-2-methylphenoxy)propylamine hydrochloride] the IC50 [4] was 9 nM and the Ki (serotonin reuptake sites) was 0.8 nM.
